One may read the viability as a read-out of living cells in per cent, often relative to untreated cells. One may read the inhibition as the share of the control response that was lost under treatment. In general, IC50 refers to the midpoint of a concentration-inhibition curve. Higher therefore signals a need for much substance.

The record followed here is PMC8587869, “Evaluation of the Inhibitory Effects of Pyridylpyrazole Derivatives on LPS-Induced PGE2 Productions and Nitric Oxide in Murine RAW 264.7 Macrophages” (Molecules, 2021).

Format in all cases: cell-based, murine
The nature of data set [1]: MTT assay for cell viability in RAW 264.7 macrophages. As to conditions: mouse, murine RAW 264.7 macrophages, mean ± SD of three experiments. As for the experimental part:
(§1) Before screening the PGE2 and NO production inhibitory effects of the compounds, the compounds’ cytotoxicity was evaluated at 1 and 10 μM concentrations to make sure that the tested concentrations are safe enough and non-cytotoxic to avoid misleading results. All compounds were non-cytotoxic at 1 μM concentration, while by increasing concentration to 10 μM, all the target compounds except 1f, 1k, and 1m started showing cytotoxicity. […] The piperidinyl and the morpholino moieties seem to be unfavorable to avoid cytotoxicity in this series of compounds. page 9: Biological evaluation Cell culture and sample treatment, nitrite determination, PGE2 assay, and MTT assay for cell viability have been carried out following the reported procedures [Bioorg. Med. Chem. Lett. 2014, 24, 571 & Eur. J. Pharmacol. 2008, 584, 175]. Western blot RAW 264.7 macrophage cells were re-suspended in PRO-PREPTM protein extraction solution (Intron Biotechnology, Seoul, Korea) and incubated with 20 min at 4 °C. The cell debris was removed by microcentrifugation, and the supernatants were quickly frozen. The protein concentration was determined using the Bio-Rad protein assay reagent according to the manufacture’s instruction. Cellular proteins were electroblotted onto a PVDF membrane following separation on 8-12% SDS-polyacrylamide gel electrophoresis. The immunoblot was incubated with blocking solution (5% skimmed milk) at room temperature for 1 h, followed by incubation overnight with a primary antibody at 4 °C. The blots were washed four times with a Tween 20/Tris-buffered saline (T/TBS) and incubated with a 1:2000 dilution of horseradish peroxidase-conjugated secondary antibody for 2 h at room temperature. The blots were again washed three times with T/TBS, and then developed by enhanced chemiluminescence (GE healthcare, WI, USA). Page 9 of 55
(Formazan colour is commonly taken as a measure of viable cells.)

For data set [2], the system named is RAW 264.7 macrophages. The description is as above. As to conditions: 10 μM; RAW 264.7 macrophages. As for the experimental part:
as §1

Data set [3] deals with RAW 264.7 macrophages. The description is as above. Particulars: 2.5, 5, 10 μM; LPS-induced RAW 264.7 macrophages.
For data set [4], the system named is LPS-induced NO production. As to the kind of experiment: Inhibition of LPS-induced NO production (nitrite determination) in RAW 264.7 cells. Particulars: LPS-induced RAW 264.7 cells; for inhibition at 1 µM / inhibition at 10 µM: Mus musculus, read-out: Inhibition Rate (%) of NO production; for inhibition at 1 µM: RAW264.7, 1 μM; for inhibition at 10 µM: RAW264.7, 10 μM. As for the experimental part:
(§2) Upon confirming the non-cytotoxicity of 10 μM concentration of these three derivatives against murine RAW 264.7 macrophages induced by LPS, compounds 1f, 1k, and 1m were tested for inhibitory effect against LPS-induced PGE2 production together with checking their cell viability. […] The fluorine atom can also add some more merits such as formation of an additional hydrogen bond with a hydrogen bond donor in the target protein and stronger hydrophobic interaction by fluorophenyl compared with unsubstituted phenyl. […] Moreover, 1f and 1m were evaluated at 1 and 10 μM for inhibitory effects on LPS-induced NO production.
(§3) Cell culture and sample treatment, nitrite determination, PGE2 assay, and MTT assay for cell
(§4) viability have been carried out following the reported procedures [Bioorg. Med. Chem. Lett. […]

Data set [5] relates to LPS-induced PGE2 production. In words: Inhibition of LPS-induced PGE2 production in RAW 264.7 macrophages. As to conditions: for inhibition of PGE2 production (in words): 2.5, 5, 10 μM. As for the experimental part:
as §2, §3, §4

Data set [6] relates to COX-2 protein expression. As to the kind of experiment: Western blot of COX-2 protein expression in LPS-induced RAW 264.7 macrophages. Particulars: especially at 10 µM. How it is done: (§5) Furthermore, the most promising compound 1m was chosen for a more extensive investigation of its molecular mechanism(s) of action. It was tested for inhibitory effects on COX-2 and iNOS protein expressions (Figure 4).
(§6) Cell culture and sample treatment, nitrite determination, PGE2 assay, and MTT assay for cell viability have been carried out following the reported procedures [Bioorg. Med. Chem. Lett.
(§7) RAW 264.7 macrophage cells were re-suspended in PRO-PREPTM protein extraction solution (Intron Biotechnology, Seoul, Korea) and incubated with 20 min at 4 °C. The cell debris was removed by microcentrifugation, and the supernatants were quickly frozen. The protein concentration was determined using the Bio-Rad protein assay reagent according to the manufacture’s instruction. Cellular proteins were electroblotted onto a PVDF membrane following separation on 8-12% SDS-polyacrylamide gel electrophoresis. The immunoblot was incubated with blocking solution (5% skimmed milk) at room temperature for 1 h, followed by incubation overnight with a primary antibody at 4 °C. The blots were washed four times with a Tween 20/Tris-buffered saline (T/TBS) and incubated with a 1:2000 dilution of horseradish peroxidase-conjugated secondary antibody for 2 h at room temperature. The blots were again washed three times with T/TBS, and then developed by enhanced chemiluminescence (GE
A general note: In western blotting, separated proteins are transferred to a membrane and probed.

Data set [7] has as its system iNOS protein expression. In words: Western blot of iNOS protein expression in LPS-induced RAW 264.7 macrophages. As to conditions: especially at 10 µM. How it is done: as §5, §6, §7
The test system of data set [8] is phosphorylation of p38. As to the kind of experiment: Western blot of p-p38 in LPS-induced RAW 264.7 macrophages. How it is done: as §5, §6, §7
The mark [9] stands for this setting: LPS-induced RAW 264.7 macrophages.
[10] abbreviates: Mus musculus, RAW264.7, LPS-induced RAW 264.7 macrophages.

In the case of `COc1cc(-c2nn(-c3cccc(NC(=O)CCN4CCOCC4)c3)cc2-c2ccncc2)ccc1Cl` [Compound 1h], in data set [1], the viability at 1 µM was determined as 99 ± 2.8% and the viability at 10 µM was determined as 75 ± 1.7%.

On to `COc1cc(-c2nn(-c3cccc(NC(=O)CN4CCCCC4)c3)cc2-c2ccncc2)ccc1Cl` [Compound 1a], for which, in data set [1], the viability at 1 µM was 99 ± 5.9% and the viability at 10 µM amounted to 10 ± 1.2%.

Consider `COc1cc(-c2nn(-c3cccc(NC(=O)CN4CCN(Cc5ccccc5)CC4)c3)cc2-c2ccncc2)ccc1Cl` [Compound 1f], for which the “cytotoxicity (in words)” value in data set [2] is reported as “non-cytotoxic”. In addition, in data set [1], the viability at 1 µM worked out at 66 ± 1.8% and the viability at 10 µM was found to be 107 ± 8.5%. Also, the “cytotoxicity (in words), LPS-induced RAW 264.7 cell viability” value in data set [3] is listed as “no cytotoxicity”. The “Inhibition Rate (%) of NO production” value in data set [4] (10 μM) was found to be 11.06 ± 1.5%. Besides, in data set [4], the inhibition at 1 µM was found to be 0% and the inhibition at 10 µM worked out at 11.6%. Further, in data set [5] (setting [9]), the “inhibition of PGE2 production (in words)” value was “good inhibition values” and the midpoint of inhibition, the IC50, lay at 7.1 µM. In data set [5] (setting [10]), this compound gave an IC50 of 7.6 µM and an inhibition at 10 µM of 65.4%. Also, in data set [5] (Mus musculus, RAW264.7, 5 μM, LPS-induced RAW 264.7 macrophages), the inhibition at 5 µM came to 37.4%.

Turning to `COc1cc(-c2nn(-c3cccc(NC(=O)CCN4CCN(Cc5ccccc5)CC4)c3)cc2-c2ccncc2)ccc1Cl` [Compound 1l], in data set [1], the viability at 1 µM was found to be 86 ± 3.7% and the viability at 10 µM came to 34 ± 1.1%.

In the case of `COc1cc(-c2nn(-c3cccc(NC(=O)CCN4CCCCC4)c3)cc2-c2ccncc2)ccc1Cl` [Compound 1g], in data set [1], the viability at 1 µM worked out at 87 ± 3.8% and the viability at 10 µM worked out at 5 ± 1.1%.

Turning to `COc1cc(-c2nn(-c3cccc(NC(=O)CN4CCN(C)CC4)c3)cc2-c2ccncc2)ccc1Cl` [Compound 1c], in data set [1], the viability at 1 µM is 78 ± 3.3% and the viability at 10 µM was 5 ± 0.8%.

For the compound `COc1cc(-c2nn(-c3cccc(NC(=O)CN4CCN(c5ccccc5)CC4)c3)cc2-c2ccncc2)ccc1Cl` [Compound 1e], in data set [1], the viability at 1 µM turned out to be 87 ± 4.1% and the viability at 10 µM is 65 ± 4.1%.

With `CCN1CCN(CCC(=O)Nc2cccc(-n3cc(-c4ccncc4)c(-c4ccc(Cl)c(OC)c4)n3)c2)CC1` [Compound 1j], in data set [1], the viability at 1 µM amounted to 98 ± 3.1% and the viability at 10 µM turned out to be 5 ± 0.8%.

In the case of `CC(=N)NCCCC[C@H](N)C(=O)O` [L-NIL, reference compound], the “Inhibition Rate (%) of NO production” value in data set [4] (1 μM) turned out to be 3.9 ± 2.1%; in data set [4] (10 μM) it was 31.32 ± 2.9%.

Regarding `COc1cc(-c2nn(-c3cccc(NC(=O)CN4CCOCC4)c3)cc2-c2ccncc2)ccc1Cl` [Compound 1b], in data set [1], the viability at 1 µM is 92 ± 4.5% and the viability at 10 µM was determined as 65 ± 2.8%.

In the case of `COc1cc(-c2nn(-c3cccc(NC(=O)CCN4CCN(Cc5ccc(F)cc5)CC4)c3)cc2-c2ccncc2)ccc1Cl` [Compound 1m], in data set [2], the “cytotoxicity (in words)” value is listed as “non-cytotoxic”. In data set [1], the viability at 1 µM was 90 ± 4.1% and the viability at 10 µM was found to be 97 ± 3.9%. Moreover, the “effect on COX-2 protein expression (in words)” value in data set [6] is “concentration-dependent inhibitory effect”. Moreover, the “cytotoxicity (in words), LPS-induced RAW 264.7 cell viability” value in data set [3] was “no cytotoxicity”. Besides, the “Inhibition Rate (%) of NO production” value in data set [4] (10 μM) is 37.19 ± 3.4%. Also, in data set [4], the inhibition at 1 µM is 0% and the inhibition at 10 µM came to 37%. Further, the “inhibition of PGE2 production (in words)” value in data set [5] (setting [9]) is “good inhibition values”. Also, in data set [5] (setting [10]), 1.1 µM corresponded to half-maximal inhibition (IC50) and at 10 µM the inhibition was 84.9%. Further, the inhibition at 2.5 µM in data set [5] (Mus musculus, RAW264.7, 2.5 μM, LPS-induced RAW 264.7 macrophages) turned out to be 67%. For the same compound, the “effect on iNOS protein expression (in words)” value in data set [7] is reported as “concentration-dependent inhibitory effect”. The “effect on phosphorylation of p38 (in words)” value in data set [8] is “markedly suppressed”.

With `COc1cc(-c2nn(-c3cccc(NC(=O)CCN4CCN(C)CC4)c3)cc2-c2ccncc2)ccc1Cl` [Compound 1i], in data set [1], the viability at 1 µM was found to be 99 ± 3.4% and the viability at 10 µM came to 5 ± 1.8%.

As to `CCN1CCN(CC(=O)Nc2cccc(-n3cc(-c4ccncc4)c(-c4ccc(Cl)c(OC)c4)n3)c2)CC1` [Compound 1d], in data set [1], the viability at 1 µM worked out at 75 ± 2.9% and the viability at 10 µM was 3 ± 0.4%.

In the case of `COc1cc(-c2nn(-c3cccc(NC(=O)CCN4CCN(c5ccccc5)CC4)c3)cc2-c2ccncc2)ccc1Cl` [Compound 1k], the “cytotoxicity (in words)” value in data set [2] is given as “non-cytotoxic”. In addition, in data set [1], the viability at 1 µM came to 89 ± 2.8% and the viability at 10 µM is 112 ± 7.6%. Moreover, the “cytotoxicity (in words), LPS-induced RAW 264.7 cell viability” value in data set [3] was “no cytotoxicity”. The “inhibition of PGE2 production (in words)” value in data set [5] (setting [9]) was “good inhibition values”.
